# Source: ChEMBL document CHEMBL1201862, “PubChem BioAssay data set” (2004)
# The source made the active and inactive calls.
# How the values were obtained:
# [1] = target: T1, Replicative DNA helicase DnaB (Mycobacterium tuberculosis, UniProt P9WMR3); experiment: DnaB intein splicing inhibitors, dose response, biochemical, cell-free fluorescence (AID 449749); type: functional
# T1 sequence (P9WMR3 whole entry): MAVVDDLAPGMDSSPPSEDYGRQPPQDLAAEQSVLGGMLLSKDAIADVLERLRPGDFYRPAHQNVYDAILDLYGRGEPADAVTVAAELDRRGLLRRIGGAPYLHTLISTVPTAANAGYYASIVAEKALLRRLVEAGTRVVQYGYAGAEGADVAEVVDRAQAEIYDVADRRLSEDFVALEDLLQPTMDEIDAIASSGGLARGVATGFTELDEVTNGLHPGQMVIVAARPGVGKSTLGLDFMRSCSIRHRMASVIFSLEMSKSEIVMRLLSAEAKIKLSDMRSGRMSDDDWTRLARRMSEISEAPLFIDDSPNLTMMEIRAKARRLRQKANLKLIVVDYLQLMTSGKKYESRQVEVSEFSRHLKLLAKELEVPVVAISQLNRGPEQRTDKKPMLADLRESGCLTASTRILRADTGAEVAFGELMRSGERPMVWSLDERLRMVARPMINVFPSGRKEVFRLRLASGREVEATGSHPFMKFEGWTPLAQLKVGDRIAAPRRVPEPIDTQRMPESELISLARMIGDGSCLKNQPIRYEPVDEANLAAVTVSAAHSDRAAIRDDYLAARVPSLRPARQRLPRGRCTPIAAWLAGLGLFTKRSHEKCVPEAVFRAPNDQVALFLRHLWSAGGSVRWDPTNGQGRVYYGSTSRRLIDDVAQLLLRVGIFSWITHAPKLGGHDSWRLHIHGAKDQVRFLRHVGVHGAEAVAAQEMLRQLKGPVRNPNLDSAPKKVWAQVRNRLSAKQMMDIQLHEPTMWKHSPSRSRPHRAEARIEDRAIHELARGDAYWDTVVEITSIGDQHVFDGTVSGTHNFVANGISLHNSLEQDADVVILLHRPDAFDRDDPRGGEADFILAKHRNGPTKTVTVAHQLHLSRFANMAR
# [2] = A Cell Based Secondary Assay To Explore Cytotoxicity of Compounds that Sensitize Mycobacterium Tuberculosis to Beta-Lactam Antibiotics.; type: functional
# [3] = growth suppression of PTEN-null colon cells, dose response, cell-based, HCT116 PTEN knockout (AID 1047); type: functional;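 also: HCT116 colon tumor cells with PTEN knocked out; cells exposed to compound for 60 hours before readout; potency for loss of cell viability measured by luminescence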
# [4] = non-specific cell cytotoxicity, dose response, cytotoxicity control for PAX8 inhibitor project, plate reader, dry powder samples (AID 743021); type: functional, cell-based
# [5] = growth suppression of beta-catenin-knockout colon cells, dose response, cell-based, HCT116, human colon tumor (AID 1045); type: functional;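 also: HCT116 colon tumor cells with beta catenin knocked out; cells exposed to compound for 60 hours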
# Protein RecA = target: T2, Protein RecA (Mycobacterium tuberculosis, UniProt P9WHJ3); experiment: Fluorescence Cell-Free Homogeneous Dose Retest to Identify Inhibitors of RecA-Intein Splicing Activity. [Related pubchem assays (depositor defined):AID2097, AID2223, AID489010, AID492950]; type: functional
# T2 sequence (P9WHJ3 whole entry): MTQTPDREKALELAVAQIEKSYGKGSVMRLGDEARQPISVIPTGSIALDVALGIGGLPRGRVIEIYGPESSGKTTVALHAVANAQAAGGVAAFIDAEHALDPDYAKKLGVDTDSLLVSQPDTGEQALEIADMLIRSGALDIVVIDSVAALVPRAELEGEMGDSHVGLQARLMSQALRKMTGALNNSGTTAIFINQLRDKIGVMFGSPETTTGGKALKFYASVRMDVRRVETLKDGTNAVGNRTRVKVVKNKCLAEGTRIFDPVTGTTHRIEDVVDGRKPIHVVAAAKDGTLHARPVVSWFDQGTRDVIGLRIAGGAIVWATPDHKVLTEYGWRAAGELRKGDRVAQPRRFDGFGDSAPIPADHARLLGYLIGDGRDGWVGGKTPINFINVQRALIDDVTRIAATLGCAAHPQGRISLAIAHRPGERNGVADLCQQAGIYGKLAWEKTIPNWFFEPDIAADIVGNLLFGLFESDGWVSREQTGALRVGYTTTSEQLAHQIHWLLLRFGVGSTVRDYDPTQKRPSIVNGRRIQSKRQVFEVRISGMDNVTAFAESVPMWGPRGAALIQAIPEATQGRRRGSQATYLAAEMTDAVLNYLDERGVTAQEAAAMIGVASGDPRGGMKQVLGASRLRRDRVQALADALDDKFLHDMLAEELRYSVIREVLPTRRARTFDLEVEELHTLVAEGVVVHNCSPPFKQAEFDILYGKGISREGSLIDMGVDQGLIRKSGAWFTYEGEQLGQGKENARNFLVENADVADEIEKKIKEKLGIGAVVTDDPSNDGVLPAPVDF
# [6] = Intein inhibitors as potential Tuberculosis drugs, a cytotoxicity screen. [Related pubchem assays (depositor defined):AID2221, AID2223, AID434968, AID435010, AID449749, AID449750, AID489010]; type: functional
# Paired box protein Pax-8 = Paired box protein Pax-8 (Homo sapiens, UniProt Q06710); experiment: inhibitors of PAX8-driven TPO luciferase reporter, dose response, RMG-I cells, cherry-pick (AID 687027); type: functional, cell-based;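 also: luciferase reporter driven by Pax8 target thyroperoxidase promoter measured by SteadyGlo luminescence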
# [7] = target: T3, High affinity choline transporter 1 (Homo sapiens, UniProt Q9GZV3); experiment: CHT activators, dose response, cell-based, 10-point CRC, membrane potential dye (AID 602376); type: functional
# T3 sequence (Q9GZV3 whole entry): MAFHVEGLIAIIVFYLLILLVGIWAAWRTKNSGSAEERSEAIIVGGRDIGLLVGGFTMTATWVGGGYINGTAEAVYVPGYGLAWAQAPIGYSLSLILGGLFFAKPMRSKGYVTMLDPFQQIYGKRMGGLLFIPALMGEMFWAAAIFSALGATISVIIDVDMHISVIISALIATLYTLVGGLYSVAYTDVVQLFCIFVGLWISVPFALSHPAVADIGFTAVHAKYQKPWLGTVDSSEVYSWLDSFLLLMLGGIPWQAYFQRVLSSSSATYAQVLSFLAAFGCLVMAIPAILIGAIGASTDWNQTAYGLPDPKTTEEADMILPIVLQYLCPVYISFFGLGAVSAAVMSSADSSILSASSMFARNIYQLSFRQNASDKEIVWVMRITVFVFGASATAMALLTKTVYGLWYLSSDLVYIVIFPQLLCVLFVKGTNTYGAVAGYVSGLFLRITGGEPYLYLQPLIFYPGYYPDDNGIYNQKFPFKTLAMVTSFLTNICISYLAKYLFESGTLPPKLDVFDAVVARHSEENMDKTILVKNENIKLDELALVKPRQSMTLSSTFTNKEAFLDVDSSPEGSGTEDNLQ
# [8] = target: Tyrosine-protein phosphatase non-receptor type 11 (Homo sapiens, UniProt Q06124); experiment: SHP2 phosphatase inhibition, dose response, selectivity assay for STEP inhibitor project, biochemical (AID 602367); type: functional; details: read-out: IC50_Mean
# [9] = target: Dual specificity protein phosphatase 3 (Homo sapiens, UniProt P51452); experiment: VHR phosphatase inhibition, dose response, selectivity assay for STEP inhibitor project, biochemical (AID 602374); type: functional; details: read-out: IC50_Mean
# Caspase-6 = target: T4, Caspase-6 (Homo sapiens, UniProt P55212); experiment: human caspase-6 inhibitors, dose response, biochemical, VEID-R110 fluorescence, cherry-pick (AID 720632)
# T4 sequence (P55212 whole entry): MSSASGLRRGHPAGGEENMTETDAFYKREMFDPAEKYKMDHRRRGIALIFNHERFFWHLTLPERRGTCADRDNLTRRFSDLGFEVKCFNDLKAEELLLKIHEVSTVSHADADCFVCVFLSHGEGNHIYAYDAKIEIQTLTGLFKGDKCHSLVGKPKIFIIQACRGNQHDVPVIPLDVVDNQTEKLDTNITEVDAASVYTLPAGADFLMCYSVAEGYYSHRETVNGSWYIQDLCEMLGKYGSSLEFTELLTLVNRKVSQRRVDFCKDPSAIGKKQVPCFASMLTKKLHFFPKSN
# [10] = target: Tyrosine-protein phosphatase non-receptor type 5 (Homo sapiens, UniProt P54829); experiment: STEP phosphatase inhibitors, confirmation, biochemical, fluorescence intensity, uHTS hits (AID 602372); type: functional; details: read-out: IC50_Mean
# [11] = target: Protein disulfide-isomerase (Homo sapiens, UniProt P07237); experiment: PDI inhibitors, insulin aggregation turbidity, dose response, biochemical, absorbance, cherry-picked samples (AID 602350); type: functional
# [12] = cytotoxicity toward NIH3T3 fibroblasts, dose response, counter-screen, cell-based, ATP luminescence, mouse fibroblasts (AID 2010); type: functional;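 also: cells exposed to compound for about 90 hours before reading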
# Melanocortin receptor 4 = Melanocortin receptor 4 (Homo sapiens, UniProt P32245); experiment: MC4R antagonist potency on cAMP, dose response, cell-based, TR-FRET, biased antagonists (AID 602298); type: functional;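 also: antagonist potency against agonist-stimulated cAMP production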
# [13] = control 3'UTR Renilla luciferase suppression, dose response, counter-screen for Shn3 inhibitor project, cell-based, Clone20-Shn3RL, cherry-picked (AID 624133); type: functional
# Large T antigen = Large T antigen (Simian virus 40, UniProt P03070); type: functional, Betapolyomavirus macacae;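 also: Confirmatory-stage PubChem screen for compounds that inhibit SV40 T antigen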
# [14] = inhibitors of intracellular T. cruzi replication, confirmation, NIH3T3 host cells, beta-gal luminescence (AID 2044); type: functional, cell-based;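 also: intracellular parasites grown in NIH/3T3 mouse fibroblasts as host cells; luminescent beta-galactosidase reporter signal from transgenic T. cruzi replicating inside host cells; inhibitors lower the luminescence signal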
# Beta-galactosidase = Beta-galactosidase (Escherichia coli, UniProt Q8VNN2); experiment: PubChem AID 485352; type: functional
# [15] = target: T5, Type-1 angiotensin II receptor (Homo sapiens, UniProt P30556); experiment: AT1 receptor antagonists, dose response, selectivity assay for APJ receptor antagonist project, cell-based, uHTS hits (AID 463214); type: functional;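 also: antagonist potency against angiotensin II stimulated AT1 response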
# T5 sequence (P30556 whole entry): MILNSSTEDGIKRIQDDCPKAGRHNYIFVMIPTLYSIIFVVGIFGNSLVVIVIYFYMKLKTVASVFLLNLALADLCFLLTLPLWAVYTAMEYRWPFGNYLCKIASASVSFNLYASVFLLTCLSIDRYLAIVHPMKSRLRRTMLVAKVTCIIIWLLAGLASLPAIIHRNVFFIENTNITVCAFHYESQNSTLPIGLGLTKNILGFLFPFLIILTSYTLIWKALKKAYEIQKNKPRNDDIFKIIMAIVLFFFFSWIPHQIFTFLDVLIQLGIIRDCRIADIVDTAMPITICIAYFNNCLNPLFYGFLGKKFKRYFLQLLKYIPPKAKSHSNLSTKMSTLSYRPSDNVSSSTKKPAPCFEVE
# [16] = Shn3 3'UTR reporter inhibitors, dose response, cell-based, Clone20 osteoblasts, firefly luciferase, cherry-picked (AID 624132); type: functional;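 also: firefly luciferase luminescence from reporter carrying the Shn3 3'UTR in osteoblasts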
# [17] = nonselective inhibitors of cellular cAMP signaling, dose response, counter-screen for MC4R biased antagonist project, cell-based, TR-FRET cAMP detection (AID 602305); type: functional;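 also: U2OS cells stimulated with forskolin near its EC80 as the cAMP inducer; potency is for inhibition of forskolin-stimulated cAMP signaling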
# INS1 = experiment: beta cell apoptosis inhibitors, cytokine rescue, dose response, luminescence, retest (AID 449756); type: functional, cell-based; details: Rattus norvegicus;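 also: cell death triggered by IL-1 beta plus TNF-alpha plus IFN-gamma mixture; protective hits raise ATP signal compared with cytokine alone wells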
# [18] = HepG2 cell cytotoxicity, dose response, cytotoxicity control for Shn3 inhibitor project, CellTiter-Glo, cherry-picked (AID 624134); type: functional, cell-based
# Sequence of Paired box protein Pax-8 (Q06710 whole entry): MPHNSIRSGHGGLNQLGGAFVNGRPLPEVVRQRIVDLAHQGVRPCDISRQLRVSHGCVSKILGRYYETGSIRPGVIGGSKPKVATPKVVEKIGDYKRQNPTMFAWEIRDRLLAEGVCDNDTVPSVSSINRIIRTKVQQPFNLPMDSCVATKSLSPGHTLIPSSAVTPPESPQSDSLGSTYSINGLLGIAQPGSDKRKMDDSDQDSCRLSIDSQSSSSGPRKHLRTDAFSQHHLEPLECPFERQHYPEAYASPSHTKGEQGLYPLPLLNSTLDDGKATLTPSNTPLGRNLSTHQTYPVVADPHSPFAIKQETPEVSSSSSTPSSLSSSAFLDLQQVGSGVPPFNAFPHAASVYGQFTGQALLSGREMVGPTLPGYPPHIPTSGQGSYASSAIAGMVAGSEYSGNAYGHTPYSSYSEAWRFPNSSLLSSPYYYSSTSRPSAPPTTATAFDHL
# Sequence of Protein disulfide-isomerase (P07237 whole entry): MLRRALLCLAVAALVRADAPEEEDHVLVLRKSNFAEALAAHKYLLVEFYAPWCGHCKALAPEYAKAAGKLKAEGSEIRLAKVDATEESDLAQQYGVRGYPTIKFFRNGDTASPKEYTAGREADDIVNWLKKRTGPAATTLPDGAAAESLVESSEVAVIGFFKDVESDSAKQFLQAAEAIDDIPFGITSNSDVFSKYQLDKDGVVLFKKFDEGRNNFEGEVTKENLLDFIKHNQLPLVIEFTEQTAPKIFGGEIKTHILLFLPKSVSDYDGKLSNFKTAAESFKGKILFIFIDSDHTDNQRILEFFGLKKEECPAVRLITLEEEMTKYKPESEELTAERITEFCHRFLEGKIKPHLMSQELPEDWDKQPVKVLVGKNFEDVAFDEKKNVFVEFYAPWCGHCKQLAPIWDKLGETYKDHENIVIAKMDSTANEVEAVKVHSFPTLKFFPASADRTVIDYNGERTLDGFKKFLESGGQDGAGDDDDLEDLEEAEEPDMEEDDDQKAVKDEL
# Sequence of Melanocortin receptor 4 (P32245 whole entry): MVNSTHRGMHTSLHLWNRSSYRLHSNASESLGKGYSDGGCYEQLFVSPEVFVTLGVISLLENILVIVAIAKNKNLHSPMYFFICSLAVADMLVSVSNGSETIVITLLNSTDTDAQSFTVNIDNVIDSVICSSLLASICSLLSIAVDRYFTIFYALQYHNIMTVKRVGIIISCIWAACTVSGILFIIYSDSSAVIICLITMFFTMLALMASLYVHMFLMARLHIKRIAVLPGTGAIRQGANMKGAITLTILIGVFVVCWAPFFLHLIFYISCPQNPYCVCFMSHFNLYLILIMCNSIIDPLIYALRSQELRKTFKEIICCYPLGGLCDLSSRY
# Sequence of Tyrosine-protein phosphatase non-receptor type 11 (Q06124 whole entry): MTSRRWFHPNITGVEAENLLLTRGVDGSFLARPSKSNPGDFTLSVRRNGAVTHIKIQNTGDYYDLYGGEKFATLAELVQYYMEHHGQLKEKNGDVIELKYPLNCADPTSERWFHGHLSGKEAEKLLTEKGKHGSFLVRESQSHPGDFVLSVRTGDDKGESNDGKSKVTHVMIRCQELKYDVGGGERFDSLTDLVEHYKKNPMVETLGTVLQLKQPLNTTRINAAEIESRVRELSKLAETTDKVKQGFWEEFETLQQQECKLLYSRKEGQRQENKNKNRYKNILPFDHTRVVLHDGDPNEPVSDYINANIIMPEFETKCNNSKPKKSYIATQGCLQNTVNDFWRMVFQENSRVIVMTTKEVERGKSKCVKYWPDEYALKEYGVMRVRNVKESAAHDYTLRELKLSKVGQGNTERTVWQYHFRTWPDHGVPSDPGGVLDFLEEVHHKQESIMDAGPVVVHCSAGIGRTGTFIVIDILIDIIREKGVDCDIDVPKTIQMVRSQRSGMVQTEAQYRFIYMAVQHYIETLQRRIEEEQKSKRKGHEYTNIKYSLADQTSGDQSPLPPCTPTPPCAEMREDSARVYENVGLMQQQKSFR
# Sequence of Tyrosine-protein phosphatase non-receptor type 5 (P54829 whole entry): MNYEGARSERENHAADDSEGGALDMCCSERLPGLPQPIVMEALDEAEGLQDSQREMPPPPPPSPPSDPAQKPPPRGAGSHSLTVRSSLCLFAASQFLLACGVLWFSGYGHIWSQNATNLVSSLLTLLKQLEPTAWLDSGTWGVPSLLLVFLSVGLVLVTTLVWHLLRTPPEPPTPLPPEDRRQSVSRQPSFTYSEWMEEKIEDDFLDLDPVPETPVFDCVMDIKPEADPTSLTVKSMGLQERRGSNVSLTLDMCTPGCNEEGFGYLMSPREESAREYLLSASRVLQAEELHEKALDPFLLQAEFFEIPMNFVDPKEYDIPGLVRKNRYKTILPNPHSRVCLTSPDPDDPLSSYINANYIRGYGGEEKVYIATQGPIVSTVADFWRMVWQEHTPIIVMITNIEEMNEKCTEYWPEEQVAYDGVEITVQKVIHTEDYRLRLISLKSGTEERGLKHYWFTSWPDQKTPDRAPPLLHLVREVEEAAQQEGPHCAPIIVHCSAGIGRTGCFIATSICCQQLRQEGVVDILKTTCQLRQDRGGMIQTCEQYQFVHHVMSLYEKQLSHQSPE
# Sequence of Beta-galactosidase (Q8VNN2 whole entry): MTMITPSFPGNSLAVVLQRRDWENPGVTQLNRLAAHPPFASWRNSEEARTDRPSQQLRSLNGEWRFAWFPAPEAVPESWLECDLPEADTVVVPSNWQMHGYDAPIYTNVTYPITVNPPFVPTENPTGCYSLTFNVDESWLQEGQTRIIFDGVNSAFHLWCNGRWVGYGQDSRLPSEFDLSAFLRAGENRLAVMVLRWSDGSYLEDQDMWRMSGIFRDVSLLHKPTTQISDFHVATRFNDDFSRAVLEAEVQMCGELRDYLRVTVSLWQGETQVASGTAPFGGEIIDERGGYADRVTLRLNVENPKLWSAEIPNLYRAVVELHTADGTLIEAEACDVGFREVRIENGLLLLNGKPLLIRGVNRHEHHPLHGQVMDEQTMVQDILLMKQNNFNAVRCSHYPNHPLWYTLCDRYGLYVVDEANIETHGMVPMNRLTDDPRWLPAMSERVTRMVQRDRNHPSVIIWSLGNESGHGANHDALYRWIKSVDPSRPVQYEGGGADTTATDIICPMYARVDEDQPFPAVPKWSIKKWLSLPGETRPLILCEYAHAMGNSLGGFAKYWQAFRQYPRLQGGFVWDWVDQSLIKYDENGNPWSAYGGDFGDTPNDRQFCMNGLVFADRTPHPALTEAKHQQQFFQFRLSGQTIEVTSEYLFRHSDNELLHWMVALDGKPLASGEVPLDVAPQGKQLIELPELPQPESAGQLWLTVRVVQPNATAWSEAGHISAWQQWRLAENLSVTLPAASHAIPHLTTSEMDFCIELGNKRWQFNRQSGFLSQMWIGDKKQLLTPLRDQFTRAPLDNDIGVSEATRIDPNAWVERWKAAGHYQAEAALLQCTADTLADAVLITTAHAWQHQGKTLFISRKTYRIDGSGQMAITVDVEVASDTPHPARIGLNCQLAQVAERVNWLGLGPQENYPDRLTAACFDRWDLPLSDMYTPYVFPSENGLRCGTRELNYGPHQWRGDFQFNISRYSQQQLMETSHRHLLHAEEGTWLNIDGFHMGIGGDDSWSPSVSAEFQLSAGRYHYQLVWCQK
# Sequence of Dual specificity protein phosphatase 3 (P51452 whole entry): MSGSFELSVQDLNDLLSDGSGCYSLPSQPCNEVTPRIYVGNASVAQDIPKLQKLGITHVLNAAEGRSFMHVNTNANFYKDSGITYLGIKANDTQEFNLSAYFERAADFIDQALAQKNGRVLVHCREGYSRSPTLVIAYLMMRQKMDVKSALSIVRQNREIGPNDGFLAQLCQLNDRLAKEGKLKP
# Sequence of Large T antigen (P03070 whole entry): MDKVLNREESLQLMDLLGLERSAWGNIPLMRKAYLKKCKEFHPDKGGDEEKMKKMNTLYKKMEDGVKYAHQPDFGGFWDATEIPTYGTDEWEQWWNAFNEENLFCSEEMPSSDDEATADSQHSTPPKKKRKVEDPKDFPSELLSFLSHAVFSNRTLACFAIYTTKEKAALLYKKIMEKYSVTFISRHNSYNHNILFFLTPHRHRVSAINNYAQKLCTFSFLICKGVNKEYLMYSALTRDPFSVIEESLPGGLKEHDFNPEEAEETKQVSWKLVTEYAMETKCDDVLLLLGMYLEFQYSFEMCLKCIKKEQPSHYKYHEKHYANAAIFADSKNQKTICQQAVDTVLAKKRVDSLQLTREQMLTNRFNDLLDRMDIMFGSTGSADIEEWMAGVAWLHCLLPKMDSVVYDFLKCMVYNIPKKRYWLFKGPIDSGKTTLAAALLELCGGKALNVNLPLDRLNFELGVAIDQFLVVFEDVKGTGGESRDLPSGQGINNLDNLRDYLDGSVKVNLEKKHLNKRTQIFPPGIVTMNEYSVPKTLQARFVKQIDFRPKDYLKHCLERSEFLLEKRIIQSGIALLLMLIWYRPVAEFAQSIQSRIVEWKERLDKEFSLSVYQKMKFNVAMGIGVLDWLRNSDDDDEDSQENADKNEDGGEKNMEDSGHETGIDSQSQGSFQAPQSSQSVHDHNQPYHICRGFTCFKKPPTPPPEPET
smiles,measurement,setting,value
Cc1nn(-c2ccccc2)c(Cl)c1CN(C(=O)CCl)c1cccc2ccccc12,AC50,[1],2.28 µM (active)
same,CC50,[2],0.591 µM (active)
same,EC50,[3],3.44 µM (active)
same,AC50,[4],11.3 µM (active)
same,EC50,[5],2.25 µM (active)
same,EC50,Protein RecA,0.571 µM (active)
same,CC50,[6],1.81 µM (active)
same,AC50,Paired box protein Pax-8,9.95 µM (active)
same,EC50,[7],16.7 µM (active)
COC(=O)c1ccccc1CSc1nsc(/C=C/N(C)C)c1C#N,IC50,[8],2.38 µM (active)
same,IC50,[9],1.29 µM (active)
same,AC50,Caspase-6,34.5 µM (active)
same,IC50,[10],14.5 µM (active)
COc1ccc(C2c3ccc(O)cc3Oc3ncn(CCN4CCOCC4)c(=N)c32)cc1OC (stereo unspecified),AC50,[11],15.5 µM (active)
CCS(=O)(=O)c1ncc(Cl)c(C(=O)Nc2ccc(S(=O)(=O)N3CCCC(C)C3)cc2)n1 (stereo unspecified),EC50,[12],3.48 µM (active)
same,IC50,Melanocortin receptor 4,> 0.797 µM (active)
same,AC50,[13],3.95 µM (active)
same,IC50,Large T antigen,62.8 µM (active)
same,EC50,[14],2.25 µM (active)
same,EC50,Beta-galactosidase,> 40 µM (inactive)
same,IC50,[15],2.18 µM (active)
same,AC50,[16],< 0.26 µM (active)
same,IC50,[17],> 64.6 µM (inactive)
same,AC50,Paired box protein Pax-8,5.34 µM (active)
same,AC50,INS1,4.76 µM (active)
same,AC50,[18],9.33 µM (active)
